According to publication PMC3083246 (Journal of medicinal chemistry, 2011):
Where “and” joins values, the source holds several entries; their conditions need not be identical. Equal values may be shown once. Read-outs that look alike come from different tables or passages of the source.

Experiments:
[1] = system: Plasmodium falciparum (3D7); conditions: read-out: IC50, Pf (3D7); ref [21]; cited from earlier work
[2] = system: CHO; conditions: read-out: IC50, CHO; ref [21]; cited from earlier work
[3] = system: OCI-AML-1 cell lines (acute myeloid leukemia); assay: Anticancer activity in cell-based assay; conditions: AML1, read-out: IC50, AML-1
[4] = target: T1, Mt ODCase (Methanothermobacter thermautotrophicus, UniProt O26232); assay: Reversible, competitive inhibition of Mt ODCase; format: biochemical, Methanobacterium thermoautotrophicum
[5] = target: T2, human ODCase (Homo sapiens, UniProt P11172); assay: Reversible, competitive inhibition of human ODCase; format: biochemical
[6] = system: Plasmodium falciparum (3D7); assay: Antimalarial activity in cell-based assay; conditions: 3D7, read-out: IC50, Pf (3D7)
[7] = target: T1, Mt ODCase; assay: Time-dependent inactivation of Mt ODCase; format: biochemical, Methanobacterium thermoautotrophicum
[8] = target: T1, Mt ODCase; conditions: cited from earlier work
[9] = target: ODCase (Methanothermobacter thermautotrophicus, UniProt O26232); assay: Mass spectral analysis of enzyme-inhibitor complexes; design: species or system Methanobacterium thermoautotrophicum; conditions: enzyme incubated with inhibitor; identical results with human ODCase
[10] = system: OCI-AML-1 cell lines (acute myeloid leukemia); conditions: read-out: IC50, AML-1; ref [17]; cited from earlier work
[11] = target: T1, Mt ODCase; conditions: cited from earlier work; remark: listed apart in the source
[12] = target: T2, human ODCase; conditions: read-out: ODCase Ki, human; competitive inhibition; ref [15],[16],[17]; cited from earlier work
[13] = ODCase Ki, Mt, competitive inhibition, ITC, 55°C

O=c1cc(I)n([C@@H]2O[C@H](CO)[C@@H](O)[C@H]2O)c(=O)[nH]1 [Compound 6-I-uridine, 6-iodouridine]
IC50 [1]: 6.2 ± 0.7 µM | IC50 [2]: 366 ± 45 µM

[N-]=[N+]=Nc1cc(=O)[nH]c(=O)n1[C@@H]1O[C@H](CO)[C@@H](O)[C@H]1F [Compound 28, 6-Azido-2′-deoxy-2′-fluoro-β-D-uridine]
IC50 [3]: > 50 µM

NC(=O)c1cc(=O)[nH]c(=O)n1[C@@H]1O[C@H](COP(=O)(O)O)[C@@H](O)[C@H]1F [Compound 36, 6-Amido-2′-deoxy-2′-fluoro-β-D-uridine-5′-O-monophosphate]
Ki ([4]; Ki, Mt ODCase, text values in mM): > 3 mM and 3.32 mM | Ki [4, 13]: 3.32 ± 0.176 mM | Ki [5]: > 3000 µM

N#Cc1cn([C@@H]2O[C@H](COP(=O)(O)O)[C@@H](O)[C@H]2F)c(=O)[nH]c1=O [Compound 37, 5-Cyano-2′-deoxy-2′-fluoro-β-D-uridine-5′-O-monophosphate]
Ki [4, 13]: 0.36 ± 0.023 mM | Ki [5]: 759 ± 88 µM

N#Cc1cn([C@@H]2O[C@H](CO)[C@@H](O)[C@H]2F)c(=O)[nH]c1=O [Compound 31, 5-Cyano-2′-deoxy-2′-fluoro-β-D-uridine]
IC50 [3]: > 50 µM

N#Cc1cc(=O)[nH]c(=O)n1[C@@H]1O[C@H](CO)[C@@H](O)[C@H]1F [Compound 29, 6-Cyano-2′-deoxy-2′-fluoro-β-D-uridine]
IC50 [3]: > 50 µM

CCN(CC)CCCC(C)Nc1ccnc2cc(Cl)ccc12 (centres unmarked) [Chloroquine]
IC50 [6]: 0.022 ± 0.002 µM

O=c1cc(I)n([C@@H]2O[C@H](COP(=O)(O)O)[C@@H](O)[C@H]2O)c(=O)[nH]1 [Compound 10, 6-iodo-UMP]
second-order rate constant relative to 2′-deoxy-2′-fluoro analog 33 ([7]; higher than 33): ~ 5 orders of magnitude | kobs/[I], M. thermoautotrophicum ODCase ([8]; irreversible inactivation, ref [16],[22]): 260000 M⁻¹ s⁻¹ | kinact ([8]; text value for the ribofuranosyl analog, ref [16],[22]): 260000 h⁻¹

[N-]=[N+]=Nc1c(F)c(=O)[nH]c(=O)n1[C@@H]1O[C@H](COP(=O)(O)O)[C@@H](O)[C@H]1O [Compound 12, 6-azido-5-fluoro-UMP]
kinact, Mt ODCase ([8]; first-order rate of inactivation, ref [17]): 41 ± 3 h⁻¹ | Ki ([8]; read-out: KI, Mt ODCase, time-dependent inactivation, ref [17]): 18.2 ± 0.0036 µM

NC(=O)c1cc(=O)[nH]c(=O)n1[C@@H]1O[C@H](CO)[C@@H](O)[C@H]1F [Compound 30, 6-Amido-2′-deoxy-2′-fluoro-β-D-uridine]
IC50 [3]: > 50 µM

N#Cc1cc(=O)[nH]c(=O)n1[C@@H]1O[C@H](COP(=O)(O)O)[C@@H](O)[C@H]1F [Compound 35, 6-Cyano-2′-deoxy-2′-fluoro-β-D-uridine-5′-O-monophosphate]
Ki [4, 13]: 0.037 ± 0.0025 mM | Ki [5]: > 2000 µM | inhibition of the catalytic activity of human ODCase ([5]; up to a concentration of 2 mM): did not inhibit | KI (inactivation) ([7]; read-out: KI, equilibrium inhibition constant of inactivation, Mt ODCase, time-dependent inactivation): 30000 ± 6000 µM | kinact ([7]; read-out: kinact, Mt ODCase): 0.000556 s⁻¹ | enzyme-inhibitor complex by mass spectrometry [9]: covalent complex

O=c1cc(I)n([C@@H]2O[C@H](CO)[C@@H](O)[C@H]2F)c(=O)[nH]1 [Compound 27, 2′-Deoxy-2′-fluoro-6-iodo-β-D-uridine]
IC50 [3]: > 50 µM

O=c1cnn([C@@H]2O[C@H](CO)[C@@H](O)[C@H]2O)c(=O)[nH]1 [Compound 5, 6-azauridine]
IC50 [10]: 6.1 µM

N#Cc1cc(=O)[nH]c(=O)n1[C@@H]1O[C@H](COP(=O)(O)O)[C@@H](O)[C@H]1O [Compound 11, 6-CN-UMP]
Ki ([11]; read-out: ODCase Ki, Mt, competitive inhibition, ref [15],[16],[17]): 0.0286 ± 0.0021 mM | Ki [12]: 204 ± 11 µM

NC(=O)c1cc(=O)[nH]c(=O)n1[C@@H]1O[C@H](COP(=O)(O)O)[C@@H](O)[C@H]1O [Compound 6-CONH2-UMP, 6-Amido-UMP]
Ki ([11]; read-out: Ki, Mt ODCase, text value in mM, ref [15],[21]): 1.32 ± 0.04 mM | Ki ([11]; read-out: ODCase Ki, Mt, competitive inhibition, ref [15],[21]): 0.00132 ± 4e-05 mM
